The test system of one assay is THP1 cells. Nature of the assay: Lipopolysaccharide-activated THP1 cell TNF production assay (THP1 cell based). As to conditions: Homo sapiens, THP-1, LPS-induced TNF-α. As for the experimental part:
Lipopolysaccharide-Activated THP1 Cell TNF Production Assay
THP1 cells are resuspended in fresh THP1 media (RPMI 1640, 10% heat-inactivated FBS, 1XPGS, 1XNEAA, plus 30 μM PME) at a concentration of 1E6/mL. One hundred microliters of cells per well are plated in a polystyrene 96-well tissue culture. One microgram per mL of bacterial LPS is prepared in THP1 media and is transferred to the wells. Test compounds are dissolved in 100% DMSO and are serially diluted 3-fold in a polypropylene 96-well microtiter plate (drug plate). HI control and LO control wells contain only DMSO. One microliter of test compound from the drug plate followed by 10 μL of LPS are transferred to the cell plate. The treated cells are induced to synthesize and secrete TNF-α at 37° C. for 3 h. Forty microliters of conditioned media are transferred to a 96-well polypropylene plate containing 110 μL of ECL buffer (50 mM Tris-HCl pH 8.0, 100 mM NaCl, 0.05% Tween 20, 0.05% NaN3 and 1% FBS) supplemented with 0.44 nM MAB610 monoclonal Ab (R&D Systems), 0.34 nM ruthenylated AF210NA polyclonal Ab (R&D Systems) and 44 μg/mL sheep anti-mouse M280 Dynabeads (Dynal). After a 2 h incubation at room temperature with shaking, the reaction is read on the ECL M8 Instrument (IGEN Inc.). A low voltage is applied to the ruthenylated TNF-α immune complexes, which in the presence of TPA (the active component in Origlo), results in a cyclical redox reaction generating light at […]. The amount of secreted TNF-α in the presence of compound compared with that in the presence of DMSO vehicle alone (HI control) is calculated using the formula: % control (POC)=(cpd−average LO)/(average HI−average LO)*100. Data (consisting of POC and inhibitor concentration in μM) is fitted to a 4-parameter equation (y=A+((B−A)/(1+((x/C)^D))), where A is the minimum y (POC) value, B is the maximum y (POC), C is the x (cpd concentration) at the point of inflection and D is the slope factor) using a Levenburg-Marquardt non-linear regression algorithm.

Another assay deals with p38 (Homo sapiens, UniProt Q16539). The assay can be described thus: p38 in-vitro HTRF enzyme assay. The format is biochemical. As to conditions: recombinant human enzyme; range symbols; read-out: p38 enyme HTRF assay IC50. As for the experimental part:
p38 In-Vitro HTRF Enzyme Assay
The compounds of the invention can be tested for their respective affinities for the p38 protein using a conventional p38 in-vitro enzyme activity assay. For example, a P38-alpha HTRF assay may be used to measure the protein's in-vitro phosphorylation activity, and the data analyzed using time resolved fluorimetry techniques (FRET). A p38 HTRF assay is as follows. The kinase reaction buffer for p38α, p38β, p38δ and p38γ HTRF assays consists of 50 mM Tris-pH 7.5, 5 mM MgCl2, 0.1 mg/mL BSA, 100 μM Na3VO4 and 0.5 mM DTT. The HTRF detection buffer contains 100 mM HEPES-pH 7.5, 100 mM NaCl, 0.1% BSA, 0.05% Tween-20, and 10 mM EDTA. Each compound was dissolved in 100% DMSO and serially diluted (3 fold, 10 point) in a polypropylene 96-well microtiter plate (drug plate). The final starting concentration of the compound in the p38α and p38β enzymatic assays was about 1 μM. The final starting concentration of each compound in the p38δ and p38γ enzymatic assays was about 10 μM. The p38α, p38β, p38δ and p38γ kinase reactions were carried out in a polypropylene 96-well black round bottom assay plate in total volume of 30 μL kinase reaction buffer. Appropriate concentration of purified and activated enzyme (recombinant human) was mixed with indicated concentration of ATP and 100 nM GST-ATF2-Avitag, in the presence or absence (HI control) of each compound. In the absence of enzyme, the background was measured as LO control. HI controls and LO controls contained only DMSO. The reaction was allowed to incubate for 1 hour at RT. […] After 60 minutes incubation at room temperature, the assay plate was read in a Discovery Plate Reader. […] The resulting data was analyzed by taking the proportion of substrate phosphorylated in the kinase reaction in the presence of each individual compound and comparing it with that phosphorylated in the presence of DMSO vehicle alone (HI control). The data was calculated using the formula: % control (POC)=(compound−average LO)/(average HI−average LO)*100. […] All results were expressed as the mean±the standard error of the mean. Data acquisition and non-linear regression algorithms were performed using Activity Base v5.2 and XLfit software v4.1 respectively. Additional assay information may be obtained in Park Y W, Cummings R T, Wu L, et al. Homogeneous Proximity Tyrosine Kinase Assays Scintillation Proximity Assay versus Homogeneous Time-Resolved Fluorescence. Analytical Biochemistry.
In general terms: Time-resolved FRET reads energy transfer from a long-lived donor to a nearby acceptor.

In a further assay the test system is IL-1. The assay can be described thus: LPS induced IL-1 cell based assay (LPS-activated monocytes). The following applies: Homo sapiens, Monocyte. How it is done: Lipopolysaccharide-Activated Monocyte TNF Production Assay
Test compounds were evaluated in vitro for the ability to inhibit the production of TNF by monocytes activated with bacterial lipopolysaccharide (LPS). Fresh residual source leukocytes (a byproduct of plateletpheresis) were obtained from a local blood bank, and peripheral blood mononuclear cells (PBMCs) were isolated by density gradient centrifugation on Ficol-Paque Plus (Pharmacia). PBMCs were suspended at 2×10^6/mL in DMEM supplemented to contain 2% FCS, 10 mM, 0.3 mg/mL […], 100 U/mL penicillin G and […] streptomycin sulfate (complete media). Cells were plated into Falcon flat bottom, 96 well culture plates (200 μL/well) and cultured overnight at 37° C. and 6% CO2. Non-adherent cells were removed by washing with 200 μl/well of fresh medium. Wells containing adherent cells (˜70% monocytes) were replenished with 100 μL of fresh medium.
Preparation of Test Compound Stock Solutions
Test compounds were dissolved in […]. Compound stock solutions were prepared to an initial concentration of […]. Stocks were diluted initially to 20-200 μM in complete media. Nine two-fold serial dilutions of each compound were then prepared in complete medium.
Treatment of Cells with Test Compounds and Activation of TNF Production with Lipopolysaccharide
One hundred microliters of each test compound dilution were added to microtiter wells containing adherent monocytes and 100 μL complete medium. Monocytes were cultured with test compounds for 60 min at which time 25 μL of complete medium containing 30 ng/mL lipopolysaccharide from E. coli K532 were added to each well. Cells were cultured an additional 4 hrs. Culture supernatants were then removed and TNF presence in the supernatants was quantified using an ELISA. […]
Standard curve data were fit to a second order polynomial and unknown TNF-α concentrations determined from their OD by solving this equation for concentration. TNF concentrations were then plotted vs. test compound concentration using a second order polynomial. This equation was then used to calculate the concentration of test compounds causing a 50% reduction in TNF production.
Compounds of the invention can also be shown to inhibit LPS-induced release of IL-1β, IL-6 and/or IL-8 from monocytes by measuring concentrations of IL-1β, IL-6 and/or IL-8 by methods well known to those skilled in the art. […] Thus, the compounds of the invention may lower elevated levels of TNF-α, IL-1, IL-6, and IL-8 levels. Reducing elevated levels of these inflammatory cytokines to basal levels or below is favorable in controlling, slowing progression, and alleviating many disease states.

pIC50: −log10 of the molar value. Bounds are passed on as bounds.

What is called pIC50 is the negative decadic logarithm of the IC50, by convention in mol/L.

Sequence of p38 (Q16539 whole entry): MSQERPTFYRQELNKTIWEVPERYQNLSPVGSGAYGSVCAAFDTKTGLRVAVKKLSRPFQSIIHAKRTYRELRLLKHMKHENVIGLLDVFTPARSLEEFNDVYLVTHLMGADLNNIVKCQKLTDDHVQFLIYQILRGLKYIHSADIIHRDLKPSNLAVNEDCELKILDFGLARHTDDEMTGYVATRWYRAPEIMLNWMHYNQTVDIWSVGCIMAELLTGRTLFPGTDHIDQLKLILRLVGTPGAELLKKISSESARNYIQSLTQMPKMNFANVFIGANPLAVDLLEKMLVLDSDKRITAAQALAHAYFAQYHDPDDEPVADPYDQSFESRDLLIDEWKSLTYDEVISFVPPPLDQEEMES

Turning to `Cc1ccc(C(=O)NC2CC2)cc1Nc1cc(=O)n(C)c2c1cnn2-c1cccc(F)c1` [Example 4, N-cyclopropyl-3-((1-(3-fluorophenyl)-7-methyl-6-oxo-6,7-dihydro-1H-pyrazolo[3,4-b]pyridin-4-yl)amino)-4-methylbenzamide], the negative logarithm of the IC50 (pIC50) with THP1 cells (range symbols), at p38 and with IL-1 (range symbols) was greater than 7.60 in each case.
On to `Cc1ccc(C(=O)NC2CC2)cc1Oc1cc(=O)n(C)c2c1cnn2-c1cccc(F)c1` [Example 5, N-cyclopropyl-3-((1-(3-fluorophenyl)-7-methyl-6-oxo-6,7-dihydro-1H-pyrazolo[3,4-b]pyridin-4-yl)oxy)-4-methylbenzamide], for which the negative logarithm of the IC50 (pIC50) in the assay with THP1 cells (range symbols) was greater than 7.60; on p38, greater than 7.60; in the assay on IL-1 (range symbols) it was 6.60 to 7.00.
In the case of `Cn1c(=O)cc(Nc2cc(C(=O)NC3CC3)ccc2F)c2cnn(-c3ccc(F)cc3F)c21` [Example 7, N-cyclopropyl-3-((1-(2,4-difluorophenyl)-7-methyl-6-oxo-6,7-dihydro-1H-pyrazolo[3,4-b]pyridin-4-yl)amino)-4-fluorobenzamide], the negative-log IC50 (pIC50) in the assay on THP1 cells (range symbols) is greater than 7.60; at p38, greater than 7.60; with IL-1 (range symbols) it was 7.00 to 7.60.
For `Cc1ccncc1Nc1cc(=O)n(C)c2c1cnn2-c1cc(F)ccc1F` [Example 8, 1-(2,5-difluorophenyl)-7-methyl-4-((4-methyl-3-pyridinyl)amino)-1,7-dihydro-6H-pyrazolo[3,4-b]pyridin-6-one], the pIC50 with THP1 cells (range symbols) is 6.60 to 7.00; at p38, 5.30 to 6.00; in the assay with IL-1 (range symbols), 6.00 to 6.60.
For `Cn1c(=O)cc(Nc2ccc(F)cc2F)c2cnn(-c3ccc(F)cc3F)c21` [Example 9, 1-(2,4-difluorophenyl)-4-((2,4-difluorophenyl)amino)-7-methyl-1,7-dihydro-6H-pyrazolo[3,4-b]pyridin-6-one], the pIC50 with THP1 cells (range symbols) was 6.00 to 6.60; at p38, 5.30 to 6.00; in the assay on IL-1 (range symbols), 5.30 to 6.00.
Take `Cn1c(=O)cc(Nc2ccc(F)cc2)c2cnn(-c3c(F)cccc3F)c21` [Example 10, 1-(2,6-difluorophenyl)-4-((4-fluorophenyl)amino)-7-methyl-1,7-dihydro-6H-pyrazolo[3,4-b]pyridin-6-one]: the pIC50 in the assay with THP1 cells (range symbols) is 6.00 to 6.60; at p38, 5.30 to 6.00; in the assay with IL-1 (range symbols) it was 5.30 to 6.00.
Turning to `Cn1c(=O)cc(Nc2cc(C(=O)NC3CC3)ccc2Cl)c2cnn(-c3c(F)cccc3F)c21` [Example 11, 4-chloro-N-cyclopropyl-3-((1-(2,6-difluorophenyl)-7-methyl-6-oxo-6,7-dihydro-1H-pyrazolo[3,4-b]pyridin-4-yl)amino)benzamide], the pIC50 with THP1 cells (range symbols), on p38 and in the assay with IL-1 (range symbols) was greater than 7.60 throughout.
With `Cn1c(=O)cc(Nc2cc(C(=O)NC3CC3)ccc2Cl)c2cnn(-c3cc(F)ccc3F)c21` [Example 12, 4-chloro-N-cyclopropyl-3-((1-(2,5-difluorophenyl)-7-methyl-6-oxo-6,7-dihydro-1H-pyrazolo[3,4-b]pyridin-4-yl)amino)benzamide], the negative-log IC50 (pIC50) in the assay on THP1 cells (range symbols), at p38 and in the assay with IL-1 (range symbols) was greater than 7.60 in each case.
Turning to `Cn1c(=O)cc(Nc2cc(C(=O)NC3CC3)ccc2Cl)c2cnn(-c3ccc(F)cc3F)c21` [Example 13, 4-chloro-N-cyclopropyl-3-((1-(2,4-difluorophenyl)-7-methyl-6-oxo-6,7-dihydro-1H-pyrazolo[3,4-b]pyridin-4-yl)amino)benzamide], the negative logarithm of the IC50 (pIC50) in the assay with THP1 cells (range symbols) and in the assay with IL-1 (range symbols) was greater than 7.60 throughout.
`Cc1ccc(C(=O)NC2CC2)cc1Nc1cc(=O)n(C)c2c1cnn2-c1ccc(F)cc1F` [Example 14, N-cyclopropyl-3-((1-(2,4-difluorophenyl)-7-methyl-6-oxo-6,7-dihydro-1H-pyrazolo[3,4-b]pyridin-4-yl)amino)-4-methylbenzamide]: the pIC50 in the assay with THP1 cells (range symbols) and in the assay on IL-1 (range symbols) was greater than 7.60 each time.
In the case of `Cc1ccc(C(=O)NC2CC2)cc1Nc1cc(=O)n(C)c2c1cnn2-c1c(F)cccc1F` [Example 15, N-cyclopropyl-3-((1-(2,6-difluorophenyl)-7-methyl-6-oxo-6,7-dihydro-1H-pyrazolo[3,4-b]pyridin-4-yl)amino)-4-methylbenzamide], the negative logarithm of the IC50 (pIC50) with THP1 cells (range symbols), at p38 and with IL-1 (range symbols) was greater than 7.60 throughout.
Turning to `Cc1ccc(C(=O)NC(C)(C)C)cc1Nc1cc(=O)n(C)c2c1cnn2-c1ccc(F)cc1F` [Example 25, N-tert-butyl-3-((1-(2,4-difluorophenyl)-7-methyl-6-oxo-6,7-dihydro-1H-pyrazolo[3,4-b]pyridin-4-yl)amino)-4-methylbenzamide], the pIC50 in the assay with THP1 cells (range symbols) was 7.00 to 7.60; in the assay with IL-1 (range symbols), 6.60 to 7.00.
In the case of `Cn1c(=O)cc(Oc2cc(C(=O)NC3CC3)ccc2Cl)c2cnn(-c3cc(F)ccc3F)c21` [Example 26, 4-chloro-N-cyclopropyl-3-((1-(2,5-difluorophenyl)-7-methyl-6-oxo-6,7-dihydro-1H-pyrazolo[3,4-b]pyridin-4-yl)oxy)benzamide], the pIC50 in the assay with THP1 cells (actual values) is 8.09; in the assay on IL-1 (actual values), 7.00.

The values are drawn from US8080546B2, “Pyrazolo-pyridinone derivatives and methods of use” (Amgen Inc., priority 2007, dated 2011).
